Values quoted from earlier work, collected in patent publication US20240100001A1, “DENATONIUM SALT FOR USE IN PREVENTING, PREVENTING PROGRESSION AND TREATING FATTY LIVER DISEASES” (AARDVARK THERAPEUTICS INC., priority 2021, published 2024).
Like-named read-outs stand apart in the source and are kept apart here.

Legend:
[1] = tested on: C57BL/6 male mice fed with the methionine- and choline-deficient (MCD) diet for 4 weeks; conditions: 5 mg/kg/day PO for the last 2 weeks; cited from earlier work
[2] = tested on: Male DIAMOND mice fed high fat sugar water diet (WDSW) for 24 weeks; conditions: cited from earlier work
[3] = tested on: Male C57BL/6N mice fed choline-deficient, L-amino acid-defined, high-fat diet (CDAHFD); conditions: cited from earlier work
[4] = tested on: Male C57BL/6 mice fed a CDAHFD diet for 12 weeks; conditions: cited from earlier work
[5] = tested on: Male C57BL/6J mice fed with the AMLN diet for 50 weeks; conditions: 30 mg/kg, PO, QD for 8 weeks; cited from earlier work
[6] = tested on: Male C57BL/6J mice fed high fat diet for 20 weeks; conditions: 0.3 mg/kg/day PO for 20 weeks; cited from earlier work
[7] = tested on: C57Bl6/J mice fed a MCD diet for 3 weeks; conditions: 10 or 30 mg/kg, PO, QD for 3 weeks; cited from earlier work
[8] = tested on: C57BL/6 mice treated with 60% high fat diet for 36 weeks; conditions: 0.3-3 mg/kg/day PO for 24 days; cited from earlier work
[9] = tested on: Male C57BL/6 mice fed a CDAHFD diet for 20 weeks; conditions: cited from earlier work
[10] = tested on: Male C57BL/6 mice fed a fast food diet (FF diet) for 330 days; conditions: dose unknown, cited from earlier work
[11] = tested on: AMLN model: C57BL/6J mice placed on AMLN diet for 30 weeks; conditions: 0.03-0.9 mg/kg for the last 4 weeks; cited from earlier work
[12] = tested on: A mouse model of diet-induced NASH; conditions: 10 mg/kg/day PO for eight weeks; cited from earlier work
NAFLD/NASH = conditions: cited from earlier work; for benefit in NAFLD/NASH: agents tried so far
[13] = tested on: patients with NASH and IGT or T2DM; conditions: women and men; cited from earlier work
[14] = tested on: FXR-deficient mice placed on a high-fat, high-fructose, highcholesterol diet (HFFCD) for 50 weeks; conditions: cited from earlier work
[15] = tested on: STAM model: Streptozotocin-injected 2-day old male C57BL/6 mice fed high-fat diet; conditions: cited from earlier work
[16] = tested on: STAM model: Streptozotocin-injected 2-day old male C57BL/6 mice fed high-fat diet; conditions: 3 mg/kg, twice weekly, cited from earlier work
[17] = tested on: Male C57BL/6J mice fed with the AMLN diet for 32 weeks; conditions: SC for 12 weeks, Semaglutide 10 nmol/kg, cited from earlier work
patients with NASH = conditions: cited from earlier work
[18] = 30 mg/kg/day PO QD for the last 8 weeks
[19] = treatment started after FF diet induction for 240 days
[20] = 60 mg/kg IV twice a week for 4 weeks, early treatment cohort
[21] = SC for 2 weeks (start at Week 7)
[22] = ALT-801 5 or 10 nmol/kg (both doses)

For `CCCCCCCCCCCCCCCCCCCC(=O)N[C@H]1CC[C@@]2(C)[C@@H](C1)C[C@@H](O)[C@@H]1[C@@H]2C[C@H](O)[C@]2(C)[C@@H]([C@H](C)CCC(=O)O)CC[C@@H]12` [Aramchol], which features of steatohepatitis [1] is on record?
The features of steatohepatitis was “Reduced”.

What about the fibrosis [1] of the same molecule?
The fibrosis was “Reduced”.

What about the “protein expression of COL1A1 in the liver” value [1] of the same molecule?
The value was “decreased protein”.

With `COc1cccc(C(=O)COc2ccc(CC3SC(=O)NC3=O)cc2)c1` (centres unmarked) [Azemiglitazone] as the molecule, how does the ballooning ([2]; 30 mg/kg/day PO QD for the last 8 weeks (16-24 weeks)) read?
Its ballooning is “decreased”.

And the “NASH CRN fibrosis score” value [2, 18]?
The value was “group was 0”.

What about the “mice progressed from simple steatosis to NASH compared to the control group” value [2, 18] of the same molecule?
Its value is “fewer MSDC-”.

What about the “serum level of ALT” value [2, 18] of the same molecule?
Its value is “reduced serum”.

What about the “serum level of AST” value [2, 18] of the same molecule?
The value was “reduced serum”.

What about the “serum level of fasting insulin” value [2, 18] of the same molecule?
The value was “reduced serum”.

What about the “NAFLD Activity Score (NAS)” value ([2]; 30 mg/kg/day PO QD for the last 8 weeks, trended lower) of the same molecule?
The value was “(NAS) trended”.

For `CCCCOCCOc1ccc(-c2ccc3c(c2)/C=C(/C(=O)Nc2ccc([S@@+]([O-])Cc4cncn4CCC)cc2)CCCN3CC(C)C)cc1` [Cenicriviroc], which “intrahepatic accumulation of inflammatory macrophages” value ([3]; 30 mg/kg/day for 4 or 14 weeks) is on record?
Its value is “Inhibited”.

And the fibrosis on histopathology ([3]; only with 30 mg/kg/day for 14 weeks, IP)?
Its fibrosis on histopathology is “improved”.

What does the source list for `CC[C@H]1[C@@H](O)[C@@H]2[C@H](CC[C@]3(C)[C@@H]([C@H](C)CCNC(=O)NS(=O)(=O)c4ccc(C(C)(C)C)cc4)CC[C@@H]23)[C@@]2(C)CC[C@@H](O)C[C@@H]12` [EDP-305]?
fibrogenic gene expression ([4]; High dose (30 mg/kg)): decreased; fibrosis progression on histopathology ([4]; High-dose (30 mg/kg) daily PO from the beginning of week 6): mg/kg) halted

With `CSc1ccc(C(=O)/C=C/c2cc(C)c(OC(C)(C)C(=O)O)c(C)c2)cc1` [Elafibranor] as the molecule, how does the fibrosis severity [5] read?
The fibrosis severity was “reduced”.

What about the “histopathological score of hepatic steatosis” value [5] of the same molecule?
The value was “reduced”.

What about the “histopathological score of inflammation” value [5] of the same molecule?
The value was “reduced”.

What does the source list for `C[C@H](NC(=O)C(=O)Nc1ccccc1C(C)(C)C)C(=O)N[C@@H](CC(=O)O)C(=O)COc1c(F)c(F)cc(F)c1F` [Emricasan]?
HOMA-IR [6]: Decreased; ballooning on histopathology [6]: Improved; fibrosis on histopathology [6]: Improved; fibrotic and inflammatory gene signature [6]: Decreased; inflammation on histopathology [6]: Improved; serum level of ALT [6]: Decreased; serum level of AST [6]: Decreased; serum level of cholesterol [6]: Decreased; serum level of glucose [6]: Decreased

For `O=C(O)CCCc1cc2cc(Cl)ccc2n1S(=O)(=O)c1ccc2ncsc2c1` [Lanifibranor], which inflammation on histopathology [7] is on record?
Its inflammation on histopathology is “prevented”.

What about the liver triglyceride levels [7] of the same molecule?
Its liver triglyceride levels is “decreased”.

And the “plasma alanine aminotransferase levels” value [7]?
Its value is “reduced plasma”.

And the serum triglyceride levels [7]?
Its serum triglyceride levels is “decreased”.

What about the steatosis on histopathology [7] of the same molecule?
The steatosis on histopathology was “prevented”.

With `CC(C)c1cc(Oc2c(Cl)cc(-n3nc(C#N)c(=O)[nH]c3=O)cc2Cl)n[nH]c1=O` [Resmetirom] as the molecule, how does the “fibrosis in treated livers” value [8] read?
Its value is “No detectable”.

What about the “inflammation in treated livers” value [8] of the same molecule?
Its value is “No detectable”.

And the insulin sensitivity [8]?
The insulin sensitivity was “Improved”.

What about the “reduced serum level of ALT” value [8] of the same molecule?
Its value is “(46%), free”.

What about the “reduced serum level of cholesterol” value [8] of the same molecule?
The value was “(67%)”.

What about the “steatosis in treated livers” value [8] of the same molecule?
The value was “No detectable”.

Which ballooning ([9]; 3 mg/kg PO for 12 weeks) does the source give for `CCO[C@@H](Cc1ccc(OCCn2c(C)ccc2-c2ccc(SC)cc2)cc1)C(=O)O` [Saroglitazar] here?
Its ballooning is “reduced or no”.

What about the hepatic steatosis ([9]; 3 mg/kg PO for 12 weeks) of the same molecule?
Its hepatic steatosis is “reversal of”.

What about the vacuolation ([9]; 3 mg/kg PO for 12 weeks) of the same molecule?
Its vacuolation is “reduced or no”.

And the “Liver lipid (TG) accumulation attenuated” value ([9]; 3 mg/kg)?
Its value is 79%.

And the “hepatic fibrogenic and inflammatory gene expression” value ([9]; 3 mg/kg)?
The value was “also reduced”.

What about the “liver TNFα levels” value ([9]; 3 mg/kg) of the same molecule?
The value was “also reduced”.

And the “liver collagen content attenuated” value ([9]; 3 mg/kg)?
Its value is 41%.

What about the “reduced serum level of ALT” value ([9]; 3 mg/kg) of the same molecule?
The value was “(60%), AST”.

What about the “reduced serum level of MCP1” value ([9]; 3 mg/kg) of the same molecule?
Its value is “MCP1 (45%)”.

What does the source list for `Cc1cc(F)c(C(=O)Nc2cccc(-c3nncn3C(C)C)n2)cc1-n1cnc(C2CC2)c1` [Selonsertib]?
Reduced liver cholesterol [10]: 45%; Reduced serum cholesterol [10]: 14%; serum bile acids [10]: reduced serum; serum cholate reduction [10]: cholate (91%; serum deoxycholate reduction [10]: (90% reduction).; fibrosis [10, 19]: reduced liver; insulin resistance [10, 19]: reduced liver; liver steatosis [10, 19]: reduced liver

For `O=C(O)c1cc(F)c2nc(N3[C@@H]4CC[C@H]3C[C@@H](OCc3c(-c5ccccc5OC(F)(F)F)noc3C3CC3)C4)sc2c1` [Tropifexor], which fibrosis [11] is on record?
Its fibrosis is “reduced”.

And the “hepatic inflammation cell populations” value [11]?
Its value is “reduced mRNA”.

What about the inflammation [11] of the same molecule?
Its inflammation is “reduced”.

And the “mRNA levels of fibrogenic markers” value [11]?
The value was “reduced mRNA”.

And the steatosis [11]?
Its steatosis is “reduced”.

Which results are given for `Cc1cc(OCP2(=O)OCC[C@@H](c3cccc(Cl)c3)O2)cc(C)c1Cc1ccc(O)c(C(C)C)c1` (some centres unmarked) [VK2809]?
NAS score mean improvement [12]: score (a 40%; all subcomponents of NAS (inflammation, ballooning, and steatosis) [12]: Improvements; liver content of cholesterol [12]: improved liver; liver content of collagen [12]: improved liver; liver content of hydroxyproline [12]: improved liver; liver content of triglyceride [12]: improved liver; liver fibrosis on histopathology [12]: improved NAS; plasma cholesterol [12]: reduced plasma; plasma triglycerides [12]: reduced plasma

For `CCCCCCCCCCC[C@@H](C[C@@H]1OC(=O)[C@H]1CCCCCC)OC(=O)[C@H](CC(C)C)NC=O` [orlistat], which “benefit compared to diet and exercise (weight loss alone)” value (NAFLD/NASH; in vivo) is on record?
The value was “no significant benefit”.

Which “benefit in NAFLD/NASH” value (NAFLD/NASH) does the source give for `CC(=O)CCCCn1c(=O)c2c(ncn2C)n(C)c1=O` [pentoxifylline] here?
Its value is “unsuccessfully or with only modest benefit”.

With `CCc1ccc(CCOc2ccc(CC3SC(=O)NC3=O)cc2)nc1` (centres unmarked) [pioglitazone] as the molecule, how does the “risk of weight gain, edema, congestive heart failure, and osteoporotic fractures” value [13] read?
Its value is “significantly increased risk”.

With `O=C1O[C@H]([C@@H](O)CO)C(O)=C1O` [vitamin C] as the molecule, how does the “benefit in NAFLD/NASH” value (NAFLD/NASH) read?
The value was “unsuccessfully or with only modest benefit”.

With `Cc1c(C)c2c(c(C)c1O)CC[C@@](C)(CCC[C@H](C)CCC[C@H](C)CCCC(C)C)O2` [vitamin E, α-tocopherol] as the molecule, how does the “benefit in NAFLD/NASH” value (NAFLD/NASH) read?
The value was “unsuccessfully or with only modest benefit”.

Which results are given for Aldafermin?
hepatic expression of inflammatory and fibrotic biomarkers ([14]; delivered by AAV at Week 16): decreased; hepatocellular fibrosis ([14]; delivered by AAV at Week 16): reduced; serum level of ALT ([14]; delivered by AAV at Week 16): reduced serum; serum level of AST ([14]; delivered by AAV at Week 16): reduced serum; spleen weight ([14]; delivered by AAV at Week 16): reduced liver; steatosis ([14]; delivered by AAV at Week 16): not impact; liver weight ([14]; delivered by adeno-associated viral vector (AAV) at Week 16): reduced liver

Which results are given for Belapectin?
expression of pathological indicators including iNOS, CD36, and a-smooth muscle actin ([15]; 60 mg/kg IV twice a week for 4 weeks): reduced the; fat deposition ([15]; 60 mg/kg IV twice a week for 4 weeks, early treatment cohort (from Week 6)): Decreased fat; hepatocellular ballooning [15, 20]: Decreased fat; inflammatory infiltrate [15, 20]: Decreased fat; NAS score ([15]; early treatment cohort (from Week 6), significant): improved NAS; NAS versus vehicle control ([15]; late treatment cohort (from Week 9), did not reach significance): improvement

What does the source list for Pegbelfermin?
mean grade for hepatocellular ballooning [16, 21]: decreased; mean grade for lobular inflammation [16, 21]: decreased; mean grade for steatosis [16, 21]: decreased; decrease of mean serum fibrosis biomarker Pro-C3 ([16]; SC for 2 weeks): C3 by 44%; liver triglycerides ([16]; SC for 2 weeks): improved; liver/body weight ratio ([16]; SC for 2 weeks): (−20%), as well; plasma triglycerides ([16]; SC for 2 weeks): improved; whole blood glucose ([16]; SC for 2 weeks): glucose (−30%),

What does the source list for semaglutide?
NAS overall score [17, 22]: decreased liver; liver weight [17, 22]: decreased liver; liver TG level ([17]; ALT-801 5 or 10 nmol/kg): decreased liver; liver content of fibrosis markers ([17]; ALT-801 5 or 10 nmol/kg): decreased liver; liver total cholesterol level ([17]; ALT-801 5 or 10 nmol/kg): decreased liver; plasma ALT level ([17]; ALT-801 5 or 10 nmol/kg): decreased liver; percentage of patients with NASH resolution and no worsening of fibrosis (patients with NASH; 0.1-mg group): 40%; percentage of patients with NASH resolution and no worsening of fibrosis (patients with NASH; 0.2-mg group): 36%; mean percent weight loss (patients with NASH; 0.4-mg group): 13%; percentage of patients with NASH resolution and no worsening of fibrosis (patients with NASH; 0.4-mg group): 59%; percentage of patients with an improvement in fibrosis stage vs placebo (patients with NASH; daily subcutaneous): did not show a significant between-group difference; incidence of constipation (patients with NASH; human, in vivo): 22%; incidence of nausea (patients with NASH; human, in vivo): 42%; incidence of vomiting (patients with NASH; human, in vivo): 15%; patients with malignant neoplasms (patients with NASH; human, in vivo): 1%; patients with neoplasms (benign, malignant, or unspecified) (patients with NASH; human, in vivo): 15%
